Source: ChEMBL document CHEMBL1145244, “In vitro advanced antimycobacterial screening of isoniazid-related hydrazones, hydrazides and cyanoboranes: part 14” (2005)
Values after ≈ are worked out from the molar mass of the structure shown.

Key:
Type in all cases: functional
[1] = system: Mycobacterium tuberculosis; assay: In vitro antimycobacterial activity against isoniazid-resistant Mycobacterium tuberculosis strain
[2] = system: Mycobacterium tuberculosis; assay: In vitro antimycobacterial activity against ethionamide-resistant Mycobacterium tuberculosis strain
[3] = system: Mycobacterium tuberculosis; assay: In vitro antimycobacterial activity against rifampin-resistant Mycobacterium tuberculosis strain
[4] = system: Mycobacterium tuberculosis; assay: In vitro antimycobacterial activity against ethambutol-resistant Mycobacterium tuberculosis strain
[5] = system: Mycobacterium tuberculosis; assay: In vitro antimycobacterial activity against thiacetazone resistant Mycobacterium tuberculosis strain
[6] = system: Mycobacterium tuberculosis; assay: Minimum inhibitory concentration against isoniazid-resistant Mycobacterium tuberculosis strain

Row | SMILES | MBC [1] [µg/mL] | MIC [1] [µg/mL] | MIC [2] [µg/mL] | MBC [3] [µg/mL] | MIC [3] [µg/mL] | MIC [4] [µg/mL] | MIC [5] [µg/mL] | MIC [6] [µg/mL]
1 | O=C(N/N=C/c1ccc(C(F)(F)F)cc1)c1ccncc1 | > 1.6 | > 1.6 | 1.6 (≈ 5.46 µM) | 0.4 (≈ 1.36 µM) | 0.2 (≈ 0.682 µM) | 0.2 (≈ 0.682 µM) | > 1.6 | –
2 | C/C(=N\NC(=O)c1ccncc1)C(F)(F)F | > 1.6 | > 1.6 | > 1.6 | 0.2 (≈ 0.865 µM) | 0.2 (≈ 0.865 µM) | 0.2 (≈ 0.865 µM) | > 1.6 | –
3 | C/C(=N\NC(=O)c1ccncc1)c1cccc(/C(C)=N/NC(=O)c2ccncc2)n1 | 12.5 (≈ 31.1 µM) | > 12.5 | > 12.5 | 6.25 (≈ 15.6 µM) | ≤ 0.2 | ≤ 0.2 | > 12.5 | –
4 | C/C=N/NC(=O)c1ccncc1 | > 0.75 | > 0.75 | 0.375 (≈ 2.3 µM) | 0.05 (≈ 0.306 µM) | 0.05 (≈ 0.306 µM) | 0.025 (≈ 0.153 µM) | > 0.75 | –
5 | N#CC[n+]1ccc(C(=O)NNCc2ccccc2)cc1 | > 25 | > 25 | > 25 | – | – | 6.25 | > 25 | –
6 | N#CC[n+]1ccc(C(=O)NNCC(F)(F)F)cc1 | > 25 | > 25 | > 25 | 6.25 | 12.5 | 12.5 | > 25 | –
7 | NNC(=O)c1ccncc1 [ISONIAZID] | > 1.6 | – | – | – | – | – | – | > 0.2
